These results are taken from patent US8501166B2, “Pyrimidinyl indole compounds” (Hutchison Medipharma Limited, priority 2010, dated 2013).

Experiment [1] deals with OVA-induced airway inflammation. Kind of experiment: Ovalbumin (OVA)-induced pulmonary inflammation in mice. Format: in vivo, Balb/c mice. On the procedure:
A compound of the present invention is tested in an OVA-induced pulmonary inflammation model in mice essentially as described in a method reported in the literature (Muriel Pichavant, Sho Goya, Eckard Hamelmann, Erwin W. Gelfand, and Dale T. Umetsu. Animal Models of Airway Sensitization. Current Protocols in Immunology. (1999) 15.18.1-15.18.13). Briefly, female Balb/c mice weighing from 18 to 20 g are sensitized by introperitoneal injection of 100 μL of saline containing 20 μg of OVA and 2 mg of aluminum hydroxide on day 1 and 14. On days 28, 29 and 30, mice are challenged once each by aerosolizing 1% ovalbumin (OVA) in phosphate buffered saline (PBS) for 20 minutes with Buxco Mass Dosing System. […] On day 32, animals from each group are anesthetized with 1% of pentobarbital sodium. The thoracic and abdominal cavities are opened and plasma is collected from centrifuged specimens. The trachea is then dissected and transected. Through the insertion of an 18-gauge catheter into the trachea, the lungs are lavaged with a total of 1.5 mL of sterile PBS and then placed into a specimen container. Cell-free BAL supernatants are obtained by centrifugation of BAL fluids. All serum and BAL supernatants are stored at −80° C. until use. Differential cell counts are performed on cytospin preparations of BAL cells for cell counting and cytokine determination. After the collection of BAL supernatants, the lungs of recipient mice are removed en bloc and fixed by an intratracheal instillation of 10% buffered formalin (in PBS). Three to six paraffin sections are obtained from the perihilar regions of recipient lungs, stained with hematoxylin and eosin, and examined under light microscopy for pathological study.

The target of a further experiment is T1, IKKβ (Homo sapiens, UniProt O14920).
T1 sequence (O14920 1-756): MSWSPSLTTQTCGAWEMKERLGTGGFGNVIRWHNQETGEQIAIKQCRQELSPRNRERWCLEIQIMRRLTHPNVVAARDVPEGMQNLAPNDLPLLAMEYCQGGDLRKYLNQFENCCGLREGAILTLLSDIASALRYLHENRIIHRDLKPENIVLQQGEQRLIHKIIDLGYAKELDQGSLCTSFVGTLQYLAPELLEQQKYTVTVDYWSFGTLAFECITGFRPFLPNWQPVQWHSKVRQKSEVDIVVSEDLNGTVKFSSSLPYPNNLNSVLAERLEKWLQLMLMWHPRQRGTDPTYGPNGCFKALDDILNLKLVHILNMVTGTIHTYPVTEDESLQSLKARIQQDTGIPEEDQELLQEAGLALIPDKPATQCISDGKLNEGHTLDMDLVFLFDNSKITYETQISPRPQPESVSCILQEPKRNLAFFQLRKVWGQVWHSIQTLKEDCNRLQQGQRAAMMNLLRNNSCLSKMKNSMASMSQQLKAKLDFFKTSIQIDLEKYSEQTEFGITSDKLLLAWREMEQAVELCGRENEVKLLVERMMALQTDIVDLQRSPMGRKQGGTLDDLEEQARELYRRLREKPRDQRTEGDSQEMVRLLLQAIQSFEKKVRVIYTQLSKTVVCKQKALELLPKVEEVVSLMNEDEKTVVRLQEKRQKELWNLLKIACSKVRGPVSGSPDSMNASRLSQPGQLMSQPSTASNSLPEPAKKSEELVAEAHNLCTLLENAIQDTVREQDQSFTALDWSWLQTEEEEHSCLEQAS
As to the kind of experiment: IKKβ kinase assay (Z′-LYTE Assay Kit-Ser/Thr 5 Peptide). In kind it is biochemical. On the procedure: Alternately, the IKKβ kinase assay is performed in vitro using a Z′-LYTE™ Assay Kit-Ser/Thr 5 Peptide (Invitrogen, Cat.No. PV3178). All reactions (20 μL) are started by adding 0.8 μL of the test compound in a DMSO solution, 10 μL of Kinase/Peptide Mixture or Phospho-Peptide solution (Invitrogen, Cat.No. PV3219, diluted with 1.33× Kinase Buffer), 5 μL of 1.33× Kinase Buffer (Invitrogen, Cat.No. PV3189, 5× diluted with distilled water) or ATP Solution (5 μM), and 4.2 μL of distilled water. The 384-well assay plate (Corning, Cat.No. 3575) is mixed and incubated at room temperature for 1 hour. 10 μL of the Development Solution [Development Reagent B (Invitrogen, Cat.No. PV3296)/Development Buffer (Invitrogen, Cat.No. PV3127)=1:128] is then added to each well, mixed and incubated at room temperature for another 1 h. The kinase reaction is then stopped by adding 10 μL of the Stop Reagent (Invitrogen, Cat.No. PV3094), and the plate is read with a Wallac 1420 VICTOR^3 Multilabel Counter (PERKIN ELMER™) at 445 nm and 520 nm fluorescence. The assay has an MSR of 2.14. The compound is initially tested at 8 concentrations (10 μM) to 0.003 μM) using a 1:3 serial dilution scheme.

In another experiment the test system is PLP-139-151 induced EAE. Kind of experiment: Mouse experimental autoimmune encephalomyelitis (EAE) model. In kind it is in vivo, SJL/J mice.

The IC50 is the concentration that gives 50% inhibition. Broadly, the ED50 is the dose that gives a 50% effect, or the effect in half of the subjects. As to `Cl.O=C(NC1CC1)c1cccc2[nH]c(-c3nc(N[C@@H]4CCC[C@H]4O)ncc3Cl)cc12` [Example 2, 2-{5-Chloro-2-[(1R,2R)-2-hydroxycyclopentylamino]pyrimidin-4-yl}-N-cyclopropyl-1H-indole-4-carboxamide hydrochloride], the “decrease of eosinophil cell numbers” value in experiment [1] (1 mg/kg (bid)) was found to be 58.6%; in experiment [1] (3 mg/kg (bid)), 49.3%; in experiment [1] (10 mg/kg (bid), p<0.05) it was 94.1%; in experiment [1] (30 mg/kg (bid), p<0.05) it was 90.2%. Moreover, the “reduction of IL-13 production” value stood at 73.0% in experiment [1] (10 mg/kg, p<0.05) and 85.1% in experiment [1] (30 mg/kg, p<0.01). Also, the “lung histology, hematoxylin and eosin stains” value in experiment [1] (Example 2 at 1 to 30 mg/kg) is “improvement in pulmonary inflammation”. For the same molecule, half-maximal inhibition against IKKβ (IC50) required 58.1 nM. Also, the body weight loss result in the experiment on PLP-139-151 induced EAE (10 and 30 mg/kg) is given as “improves”. Besides, the ED50 with PLP-139-151 induced EAE (Mus musculus, 3, 10, and 30 mg/kg oral twice daily, read-out: ED50, EAE clinical score) stood at 3.7 mg/kg.
